IC50 data for 29 compounds are collected here from EP4813980A1, “EP300/CBP REGULATOR, AND PREPARATION METHOD THEREFOR AND USE THEREOF” (Miracure Biotechnology Limited, priority 2023, dated 2025).

For one assay, the system named is 22RV1 cells. Briefly: Cell growth inhibition, CellTiter-Glo, 72 h. The assay is classed as cell-based. The following applies: 72 h culture, mean of N=2. Here is the method:
(§1) 22RV1, vCap, MM1S and OPM-2 cells were cultured in RPMI-1640 medium (10% fetal bovine serum and 100 units of penicillin/streptomycin dual-antibody per mL were added to RPMI-1640) in a cell incubator at 37°C with 5% CO2, respectively. Cells in logarithmic growth phase were seeded into 96-well cell culture plates at 5×10^3 cells/100 µL/well and cultured overnight. Active compounds dissolved in DMSO at different concentrations were added with a final concentration of 0.5% DMSO. 1% Tween 20 was used as positive control and 0.5% DMSO was used as negative control. After 72 h of culture, an equal volume of CellTiter-Glo was added to each well, mixed by shaking for 2 min, and left standing at room temperature for 10 min. […] signal values were read with a microplate reader. Data were analyzed and graphs were generated using Prism 7.0. The values shown are mean ± SEM (N=2). […] The formula for inhibition rate is as follows: % Inhibition = (Icompound−IZPE)/(IHPE−IZPE) × 100 [formula]
(§2) The X-axis is compound concentration (nM), and the Y-axis is % Inhibition.

A further assay concerns vCap cells. Briefly: Cell growth inhibition, CellTiter-Glo, 72 h. The assay is classed as cell-based. Conditions: 72 h culture, mean of N=2. Here is the method: as §1, §2

pIC50: −log10 of the molar value.

As to `CC(=O)N1Cc2cc(C3CCN(C(=O)Cn4cc(COc5cccc6c5CN(C5CCC(=O)NC5=O)C6=O)nn4)CC3)cc(N3CCCc4cc(-c5cnn(C)c5)c(C(F)F)cc43)c2C1` (centres unmarked) [Compound 2046], the pIC50 in the assay with 22RV1 cells (Homo sapiens) was 7.85.
For the compound `CC(=O)N1Cc2cc(C3CCN(C(=O)CCCCCCCCNc4ccc5c(c4)n(C)c(=O)n5C4CCC(=O)NC4=O)CC3)cc(N3CCCc4cc(-c5cnn(C)c5)c(C(F)F)cc43)c2C1` (centres unmarked) [Compound 2009], the pIC50 is 11.00 in the assay on vCap cells (Homo sapiens) and 10.40 in the assay on 22RV1 cells (Homo sapiens).
As to `CNC(=O)N1CCc2cc(C3CCN(CCN4CCOC(CNc5cccc6c5C(=O)N(C5CCC(=O)NC5=O)C6=O)C4)CC3)cc(N3CCCc4cc(-c5cnn(C)c5)c(C(F)F)cc43)c2C1` (centres unmarked) [Compound 2010], the pIC50 is 9.71 in the assay on vCap cells (Homo sapiens) and 10.10 with 22RV1 cells (Homo sapiens).
Taken in the same sequence, the figures for `CC(=O)n1cc2cc(C3CCN(C(=O)CCCCCCCNc4ccc5c(c4)n(C)c(=O)n5C4CCC(=O)NC4=O)CC3)cc(N3CCCc4cc(-c5cnn(C)c5)c(C(F)F)cc43)c2c1` (centres unmarked) [Compound 2004, 3-[5-[[8-[4-[2-acetyl-7-[7-(difluoromethyl)-6-(1-methylpyrazol-4-yl)-3,4-dihydro-2H-quinolin-1-yl]isoindol-5-yl]piperidin-1-yl]-8-oxooctyl]amino]-3-methyl-2-oxobenzoimidazol-1-yl]piperidine-2,6-dione] were 9.92 and 10.52.
Compound `CC(=O)N1Cc2cc(C3CCN(CCN4CCC(CNc5cccc6c5CN(C5CCC(=O)NC5=O)C6=O)CC4)CC3)cc(N3CCCc4cc(-c5cnn(C)c5)c(C(F)F)cc43)c2C1` (centres unmarked) [Compound 2061] showed a pIC50 with 22RV1 cells (Homo sapiens) of 8.46.
Regarding `CC(=O)N1Cc2cc(C3CCN(CC4CCN(CCNc5cccc6c5CN(C5CCC(=O)NC5=O)C6=O)CC4)CC3)cc(N3CCCc4cc(-c5cnn(C)c5)c(C(F)F)cc43)c2C1` (centres unmarked) [Compound 2060], the pIC50 in the assay on 22RV1 cells (Homo sapiens) is 8.17.
In the assay on 22RV1 cells (Homo sapiens), `CC(=O)N1Cc2cc(C3CCN(CCN4CCC(CCc5cccc6c5C(=O)N(C5CCC(=O)NC5=O)C6=O)CC4)CC3)cc(N3CCCc4cc(-c5cnn(C)c5)c(C(F)F)cc43)c2C1` (centres unmarked) [Compound 2005] had a pIC50 of 8.11.
Take `COC(=O)N1CCc2cc(C3CCN(C(=O)CCCCCCCNc4ccc5c(c4)C(=O)N(C4CCC(=O)NC4=O)C5=O)CC3)cc(N3CCCc4cc(-c5cnn(C)c5)c(C(F)F)cc43)c2C1` (centres unmarked) [Compound 2026, methyl 8-[7-(difluoromethyl)-6-(1-methylpyrazol-4-yl)-3,4-dihydro-2H-quinolin-1-yl]-6-[1-[8-[[2-(2,6-dioxo-3-piperidinyl)-1,3-dioxoisoindolin-5-yl]amino]octanoyl]-4-piperidinyl]-3,4-dihydro-1H-isoquinoline-2-carboxylate]: the pIC50 with 22RV1 cells (Homo sapiens) is 7.65.
On to `CC(=O)N1Cc2cc(C3CCN(Cc4ccc(CCOc5cccc6c5CN(C5CCC(=O)NC5=O)C6=O)cc4)CC3)cc(N3CCCc4cc(-c5cnn(C)c5)c(C(F)F)cc43)c2C1` (centres unmarked) [Compound 2003], for which the values for the pIC50 in the assay on vCap cells (Homo sapiens) and in the assay with 22RV1 cells (Homo sapiens) were 9.72 and 9.16, respectively.
Take `CC(=O)N1CCc2cc(C3CCN(C(=O)CCCCCCCNc4ccc5c(c4)C(=O)N(C4CCC(=O)NC4=O)C5=O)CC3)cc(N3CCCc4cc(-c5cnn(C)c5)c(C(F)F)cc43)c2C1` (centres unmarked) [Compound 2025, 5-[[8-[4-[2-acetyl-8-[7-(difluoromethyl)-6-(1-methylpyrazol-4-yl)-3,4-dihydro-2H-quinolin-1-yl]-3,4-dihydro-1H-isoquinolin-6-yl]-1-piperidinyl]-8-oxooctyl]amino]-2-(2,6-dioxo-3-piperidinyl)isoindoline-1,3-dione]: the values for the pIC50 with vCap cells (Homo sapiens) and with 22RV1 cells (Homo sapiens) were 5.12 and 5.41, respectively.
On to `CNC(=O)N1CCc2cc(C3CCN(Cc4ccc(CCOc5cccc6c5CN(C5CCC(=O)NC5=O)C6=O)cc4)CC3)cc(N3CCCc4cc(-c5cnn(C)c5)c(C(F)F)cc43)c2C1` (centres unmarked) [Compound 2012], for which the pIC50 in the assay on vCap cells (Homo sapiens) is 8.64; in the assay with 22RV1 cells (Homo sapiens), 9.21.
On to `CC(=O)N1Cc2cc(C3CCN(CC4CCN(c5cccc6c5CN(C5CCC(=O)NC5=O)C6=O)CC4)CC3)cc(N3CCCc4cc(-c5cnn(C)c5)c(C(F)F)cc43)c2C1` (centres unmarked) [Compound 2047], for which the pIC50 in the assay on 22RV1 cells (Homo sapiens) is less than 5.00.
For the compound `CC(=O)N1Cc2cc(C3CCN(C(=O)CCCCCCNc4ccc5c(c4)n(C)c(=O)n5C4CCC(=O)NC4=O)CC3)cc(N3CCCc4cc(-c5cnn(C)c5)c(C(F)F)cc43)c2C1` (centres unmarked) [Compound 2027], the values for the pIC50 in the assay on vCap cells (Homo sapiens) and in the assay on 22RV1 cells (Homo sapiens) were 11.00 and 10.40, respectively.
For “3-{5-[8-(4-{2-acetyl-7-[7-(difluoromethyl)-6-(1-methylpyrazol-4-yl)-3,4-dihydro-2H-quinolin-1-yl]-1,3-dihydroisoindol-5-yl}piperidin-1-yl)-8-oxo-1-yn-1-yl]-3-methyl-2-oxo-1,3-benzodiazol-1-yl}piperidine-2,6-dione [Compound 2030]”, the pIC50 in the assay with vCap cells was 10.00; in the assay with 22RV1 cells it was 9.47.
`CC(=O)N1Cc2cc(C3CCN(CCN4CCC(COc5cccc6c5CN(C5CCC(=O)NC5=O)C6=O)CC4)CC3)cc(N3CCCc4cc(-c5cnn(C)c5)c(C(F)F)cc43)c2C1` (centres unmarked) [Compound 2055]: the results for the pIC50 with vCap cells (Homo sapiens) and in the assay on 22RV1 cells (Homo sapiens) were 9.59 and 9.27, respectively.
For `CNC(=O)N1CCc2cc(C3CCN(CCN4CCC(CNc5cccc6c5C(=O)N(C5CCC(=O)NC5=O)C6=O)CC4)CC3)cc(N3CCCc4cc(-c5cnn(C)c5)c(C(F)F)cc43)c2C1` (centres unmarked) [Compound 2021], the pIC50 with vCap cells (Homo sapiens) is 9.26; with 22RV1 cells (Homo sapiens), 9.30.
`CC(=O)N1Cc2cc(C3CCN(CCc4ccc(COc5cccc6c5CN(C5CCC(=O)NC5=O)C6=O)cc4)CC3)cc(N3CCCc4cc(-c5cnn(C)c5)c(C(F)F)cc43)c2C1` (centres unmarked) [Compound 2031]: the pIC50 with vCap cells (Homo sapiens) is 9.68; in the assay on 22RV1 cells (Homo sapiens) it was 10.40.
For the compound `CC(=O)N1Cc2cc(C3CCC(N(C)C4CCN(c5ccc6c(c5)CN(C5CCC(=O)NC5=O)C6=O)CC4)CC3)cc(N3CCCc4cc(-c5cnn(C)c5)c(C(F)F)cc43)c2C1` (centres unmarked) [Compound 2079, 3-(5-((4-((2-acetyl-7-(7-(difluoromethyl)-6-(1-methyl-1H-pyrazol-4-yl)-3,4-dihydroquinolin-1(2H)-yl)isoindolin-5-yl)cyclohexyl)(methyl)amino)piperidin-1-yl)-1-oxoisoindolin-2-yl)piperidine-2,6-dione], the pIC50 with 22RV1 cells (Homo sapiens) is 8.42.
On to `CC(=O)N1Cc2cc(C3CCN(CC4CCN(CCCc5cccc6c5C(=O)N(C5CCC(=O)NC5=O)C6=O)CC4)CC3)cc(N3CCCc4cc(-c5cnn(C)c5)c(C(F)F)cc43)c2C1` (centres unmarked) [Compound 2020], for which the pIC50 is 9.28 in the assay on vCap cells (Homo sapiens) and 8.73 in the assay on 22RV1 cells (Homo sapiens).
Take `C=CC(=O)NC1CCC(n2c([C@@H]3CCCC(=O)N3c3ccc(F)c(F)c3)nc3cc(-c4c(C)noc4C)ccc32)CC1` (some centres unmarked) [Compound 1371]: in the assay with 22RV1 cells, the pIC50 is 5.68.
`CC(=O)N1Cc2cc(C3CCN(Cc4ccc(CCOc5cccc6c5CN(C5CCC(=O)NC5=O)C6=O)nc4)CC3)cc(N3CCCc4cc(-c5cnn(C)c5)c(C(F)F)cc43)c2C1` (centres unmarked) [Compound 2035, 3-[4-(2-{5-[(4-{2-acetyl-7-[7-(difluoromethyl)-6-(1-methylpyrazol-4-yl)-3,4-dihydro-2H-quinolin-1-yl]-1,3-dihydroisoindol-5-yl}piperidin-1-yl)methyl]pyridin-2-yl}ethoxy)-1-oxo-3H-isoindol-2-yl]piperidine-2,6-dione] showed a pIC50 in the assay on 22RV1 cells (Homo sapiens) of 8.59.
Compound `CNC(=O)N1Cc2cc(C3CCN(C(=O)CCOCCOCCOCCOCCNc4ccc5c(c4)C(=O)N(C4CCC(=O)NC4=O)C5=O)CC3)cc(N3CCCc4cc(-c5cnn(C)c5)c(C(F)F)cc43)c2C1` (centres unmarked) [Compound 2023] had a pIC50 in the assay with 22RV1 cells (Homo sapiens) of 6.36.
Turning to `CNC(=O)N1CCc2cc(C3CCN(CCN4CCC(CCc5cccc6c5C(=O)N(C5CCC(=O)NC5=O)C6=O)CC4)CC3)cc(N3CCCc4cc(-c5cnn(C)c5)c(C(F)F)cc43)c2C1` (centres unmarked) [Compound 2014, 8-(7-(difluoromethyl)-6-(1-methylpyrazol-4-yl)-3,4-dihydro-2H-quinolin-1-yl)-6-[1-[2-[4-[2-[2-(2,6-dioxo-3-piperidinyl)-1,3-dioxoisoindolin-4-yl]ethyl]-1-piperidinyl]ethyl]-4-piperidinyl]-N-methyl-3,4-dihydro-1H-isoquinoline-2-carboxamide], the pIC50 with vCap cells (Homo sapiens) is 7.96.
In turn, `C=CS(=O)(=O)N[C@H]1CC[C@H](n2c([C@@H]3CCCC(=O)N3c3ccc(F)c(F)c3)nc3cc(-c4c(C)noc4C)ccc32)CC1` [Compound 1370] gave a pIC50 in the assay with 22RV1 cells (Homo sapiens) of 5.79.
In the assay on 22RV1 cells (Homo sapiens), `CC#CC(=O)N1CCC(n2nc(N3CCCc4cc(-c5cnn(C)c5)c(C(F)F)cc43)c3c2CCN(C(=O)NC)C3)CC1` [Compound 1376] showed a pIC50 of 5.58.
Consider `CC(=O)N1Cc2cc(C3CCN(CCN4Cc5cc6c(cc5C4)C(=O)N(C4CCC(=O)NC4=O)C6=O)CC3)cc(N3CCCc4cc(-c5cnn(C)c5)c(C(F)F)cc43)c2C1` (centres unmarked) [Compound 2059], for which the pIC50 in the assay on 22RV1 cells (Homo sapiens) was 8.03.
In the assay on 22RV1 cells (Homo sapiens), `CC(=O)N1Cc2cc(C3CCN(CC4CCN(CCOc5ccc(N6CCC(=O)NC6=O)cc5)CC4)CC3)cc(N3CCCc4cc(-c5cnn(C)c5)c(C(F)F)cc43)c2C1` [Compound 2072] gave a pIC50 of 5.69.
In the assay with 22RV1 cells (Homo sapiens), `C=CC(=O)N1CCC(c2cc3c(c(N4CCCc5cc(-c6cnn(C)c6)c(C(F)F)cc54)c2)CN(C(=O)NC)CC3)CC1` [Compound 1346, 6-(1-acryloylpiperidin-4-yl)-8-(7-(difluoromethyl)-6-(1-methyl-1H-pyrazol-4-yl)-3,4-dihydroquinolin-1(2H)-yl)-N-methyl-3,4-dihydroisoquinoline-2(1H)-carboxamide] showed a pIC50 of 4.09.
For the compound `CC(=O)N1Cc2cc(C3CCN(C(=O)CN4Cc5cc6c(cc5C4)C(=O)N(C4CCC(=O)NC4=O)C6=O)CC3)cc(N3CCCc4cc(-c5cnn(C)c5)c(C(F)F)cc43)c2C1` (centres unmarked) [Compound 2050], in the assay on 22RV1 cells (Homo sapiens), the pIC50 is 8.28.
